± gives the expanded uncertainty stated by the source.
Key:
[1] = refractive index (Na D-line) (dimensionless); details: 293.15 K; 101.33 kPa; Crystal; Standard Abbe refractometry
[2] = 293.15 K, 101.33 kPa, Pycnometric method

Structure (SMILES)	refractive index [1]	mass density ([2]; Crystal) [kg/m3]	mass density ([2]; Liquid) [kg/m3]
Cl.N [ammonium chloride (NH4Cl)]	1.638 ± 0.0008	1527 ± 12	
CCCCO [butan-1-ol]			810 ± 12
